Entries after “also recorded” stand apart in the source; their conditions may differ. Where two headings read alike, the source gives them in different places.
Legend:
[1] = target: AChE of electroforus electricus (electric eel) (Electrophorus electricus, UniProt O42275); assay: biochemical; details: mean of three independent experiments ± SEM
Description: All new racemic compounds were tested as acetylcholinesterase inhibitors via an in vitro assay, following a modification of Ellman’s method in three independent experiments, using tacrine as a reference compound. […] Enzyme inhibition assays were performed using an adaptation of Ellman’s method. The readings were made in a spectrophotometer Perkin-Elmer Lambda 35 UV-Vis. Enzyme activity is measured by following the increase in yellow color produced from thiocholine when it reacts with dithiobisnitrobenzoate ion (DTNB). DTNB solution was obtained dissolving the reagent in HEPES buffer with salts, namely NaCl (50 mM) and MgCl2 (20 mM), obtaining a 3 mM solution. The enzyme AChE of electroforus electricus (electric eel) stock (500 U) was dissolved in TRIS 50 mM, pH 8.0, being posteriorly diluted to assay concentrations (5 U), obtaining an aliquot of 1 mL. The enzyme substrate used was acetylthiocholine iodide (AThCh, 16 mM), which was prepared with deionized water. The compounds tested were diluted in MeOH or DMSO (1 mg/mL, 2–7 × 10^−3 M), with further dilution, and five different concentrations were used for each compound, obtaining different percentages of AChE inhibition. The assay consists in the addition of HEPES (50 mM, pH = 8), inhibitor, AChE and MeOH in a 1 mL cuvette. The mixture was left to incubate for 15 min and, after that, AThCh and DTNB were added. The enzymatic reaction was followed through the measurements of absorbencies at 405 nm (Perkin Elmer Lambda 35 spectrophotometer equipped with a temperature programmer PTP 1þ1 Peltier System, using thermostated (T = 25.0 ± 0.1 °C) 1 cm path length cells) during 5 min. A blank solution containing all the components except the enzyme, that was substituted for equal volume of HEPES, was used. A control reaction was used using MeOH instead of the new compounds and was considered the reaction corresponding to 100% enzymatic activity. Each assay was performed in quintupled.

Aβ1-42 [2] = target: T1, Aβ1-42 (Homo sapiens, UniProt P05067); assay: biochemical; details: for inhibition at 40 µM: read-out: Inhib. Aβ Aggreg. Self-Induced; for Inhib. Aβ Aggreg. Self-Induced: 40 µM
T1 construct: Amyloid β peptide (Aβ1-42) was purchased from GeneCust as a lyophilised powder; purchased GeneCust
Description: The anti-amyloidogenic activity of all the compounds was also evaluated in vitro, in the absence and in presence of Cu(II), by measuring the fluorescence emission of Thioflavin T (ThT).
The spectrofluorimetric method, based on the fluorescence emission of thioflavin T (ThT), was used to study the Aβ1-42 aggregation inhibition. Firstly, Aβ1-42 was dissolved in HFIP (1,1,1,3,3,3-Hexafluoro-2-propanol) and kept overnight at room temperature in order to obtain a dry film. […] The ligand solutions were prepared with MeOH (1mg/mL) and further with phosphate buffer. […] As a control, a solution of 30 μL of phosphate buffer and 30 μL of Aβ1-42 was used to observe the aggregation without any inhibition, while the ligand assay solutions were composed of 20 μL of phosphate buffer, 30 μL of Aβ1-42 and 10 μL of ligand. The Cu-induced aggregation studies were similarly conducted, adding 10 μL of CuCl2 to induce the fibril aggregation. Each experiment was composed of an assay and a blank sample, where the blank sample lacks Aβ1-42, to monitor the effect of the compounds on the fluorescence emission. The samples were left to incubate in a CERTOMAT WR water bath for 24 h at 37 °C with shaking. After 24 h, a Glycine-NaOH buffer (pH = 8.5) containing ThT were added to each sample in a microplate. The fluorescence signal was monitored at 446 nm (λexc) and 486 nm (λem) with a Varian Cary Eclipse fluorimeter. Amyloid β peptide (Aβ1-42) was purchased from GeneCust as a lyophilised powder and stored at −20 °C [12, 13, 14].

Aβ1-42 [3] = target: T1, Aβ1-42; assay: Inhibition of Cu2+-induced Aβ1-42 aggregation, thioflavin T fluorescence; type: biochemical; details: inhibitor 40 µM, copper 40 µM
Description: The anti-amyloidogenic activity of all the compounds was also evaluated in vitro, in the absence and in presence of Cu(II), by measuring the fluorescence emission of Thioflavin T (ThT). […] The Aβ self-aggregation inhibitory activity shown by all compounds is higher than that of parent compound TA, with the exception of compound 2 (probably due to solubility issues at the experimental conditions of the assays). The fact that the reference value previously reported by us for TA (50 ± 8%) was obtained for quite different conditions, including a much higher inhibitor concentration (100 μM instead of 40 μM) is noteworthy. […] This may be due to different electronic contributions between the ketone and the ester functions. Therefore, the ester derivatives seem to be better chelators compared to TA.
The spectrofluorimetric method, based on the fluorescence emission of thioflavin T (ThT), was used to study the Aβ1-42 aggregation inhibition. Firstly, Aβ1-42 was dissolved in HFIP (1,1,1,3,3,3-Hexafluoro-2-propanol) and kept overnight at room temperature in order to obtain a dry film. Then, the film was re-dissolved in CH3CN-Na2CO3 (300μM)/NaOH (250μM) (48.3/48.3/3.4 mL v/v/v) and then phosphate buffer (pH = 8) was added. The ligand solutions were prepared with MeOH (1mg/mL) and further with phosphate buffer. For the inhibition studies of copper-induced Aβ aggregation, a solution of CuCl2 240 μM was used. As a control, a solution of 30 μL of phosphate buffer and 30 μL of Aβ1-42 was used to observe the aggregation without any inhibition, while the ligand assay solutions were composed of 20 μL of phosphate buffer, 30 μL of Aβ1-42 and 10 μL of ligand. The Cu-induced aggregation studies were similarly conducted, adding 10 μL of CuCl2 to induce the fibril aggregation. Each experiment was composed of an assay and a blank sample, where the blank sample lacks Aβ1-42, to monitor the effect of the compounds on the fluorescence emission. The samples were left to incubate in a CERTOMAT WR water bath for 24 h at 37 °C with shaking. After 24 h, a Glycine-NaOH buffer (pH = 8.5) containing ThT were added to each sample in a microplate. The fluorescence signal was monitored at 446 nm (λexc) and 486 nm (λem) with a Varian Cary Eclipse fluorimeter. Amyloid β peptide (Aβ1-42) was purchased from GeneCust as a lyophilised powder and stored at −20 °C [12, 13, 14].

[4] = set-up: method as in PMID 30158491; details: DPPH assay; cited from earlier work
Aβ1-42 [5] = target: T1, Aβ1-42; set-up: method as in PMID 30158491; details: Cinhibitor = 100 µM; cited from earlier work
[6] = set-up: method as in literature; details: value reported in the literature; ref literature; cited from earlier work
[7] = Radical scavenging activity, DPPH method; details: DPPH assay; mean ± SEM of 3 independent experiments
Description: Therefore, they were assayed for radical scavenging activity using the DPPH method.
The final volume of the assay was 3.5 mL, corrected with MeOH to obtain different concentrations of our compound in each assay. The control solution was composed of MeOH and DPPH [14]. After 30 min, at RT, protected from light, the absorbance was measured at 517 nm (Perkin Elmer Lambda 35 spectrophotometer equipped with a temperature programmer PTP 1þ1 Peltier System, using thermostated (T¼25.0 ± 0.1 °C) 1 cm path length cells), against a blank solution (MeOH). The assays were performed in triplicate, in which the EC50 was obtained through the graphical representation of the %AA vs. the inhibitor concentration.

[8] = tested on: SH-SY5Y human neuroblastoma cells; assay: Dose-response cell viability screening, MTT reduction assay; type: cell-based; details: for highest non-toxic concentration (selected concentration): SH-SY5Y cells exposed for 25 h
Description: (§1) SH-SY5Y human neuroblastoma cells (ATCC-CRL-2266) were seeded in DMEM/F12 (Dulbecco’s Modified Eagle Medium/Ham’s F-12 Nutrient Mixture; Thermo Fisher Scientific) with 10% heat inactivated fetal bovine serum, 50 U/mL penicillin and 50 U/mL streptomycin under a humidified atmosphere with 95% relative humidity at 37 °C at a 0.16 × 10^6 cells/mL density. Stock solutions from tested compounds (1, 2, 4 and 5) were prepared in DMSO at a 25 mM concentration and stored at −20 °C until needed. In order to select the highest non-toxic concentration, a dose-response screening was performed, where SH-SY5Y cells were exposed to the compounds for 25 h. The selected concentrations for each compound were: 75 µM final concentration for 1 and 2; 10 µM final concentration for 4 and 20 µM final concentration for 5. […] For the neuroprotection assays, the selected compounds were added to the cell media 1 hour prior to the incubation with Aβ1-42 or L-ascorbic acid/ferrous sulphate. Aβ1-42 or L-ascorbic acid/ferrous sulphate treatment was maintained for another 24 h. Aβ1-42 was prepared as 276.9 µM stock in sterile water and administrated in the medium at a 2.5 µM final concentration. Ferrous sulphate was freshly prepared as 0.36 M stock in water and added to the medium at 2.5 mM final concentration. L-ascorbic acid was freshly prepared as 80 mM stock in water and added to the medium at 5 mM final concentration. Aβ1-42 was purchased from Bachem (Torrance, CA, USA) and ferrous sulphate and L-ascorbic acid from Sigma Chemical Co (St. Louis, MO, USA).
(§2) Cell viability was measured by using the MTT (3-(4,5-dimethylthiazol-2-yl)-2,5-diphenyl tetrazolium bromide) reduction assay. This test is based on the presence of succinate dehydrogenase enzyme in viable cells, that allows them to metabolize MTT into a formazan. After treatment, the medium was removed, and cells were washed with 1x PBS one time to remove dead cells. 200 µL of MTT solution (0.5 mg/mL) was added to each well and incubated for 2 h protected from light. Formazan precipitates were then dissolved in DMSO and absorbance measured at 570 nm. The ability to reduce MTT was expressed as a percentage of untreated control cells.
Figure 10 Dose-response screening of compounds 1, 2, 4 and 5 on SH-SY5Y neuronal cell line. Overnight cultures were treated with a range of concentrations from 10 μM to 100 μM for 24 h and cellular viability was determined by employing the MTT reduction assay.

[9] = tested on: SH-SY5Y human neuroblastoma cells; assay: Neuroprotection against Aβ1-42-induced toxicity, MTT; type: cell-based; details: Aβ1-42 2.5 μM 24 h; 1 h pre-incubation; compounds 1, 2 100 µM; 4 10 µM; 5 20 µM
Description: as §1, §2
Overnight cultures were treated with Aβ1-42 peptide (2.5 μM) for 24 h in the absence or in the presence of the compounds. When compounds were present, a pre-incubation of 1 h preceded the Aβ1-42 treatment. Cellular viability was determined by employing the MTT reduction assay. […] (compounds: 1, 2–100 µM; 4–10 µM; 5–20 µM).

[10] = tested on: SH-SY5Y human neuroblastoma cells; assay: Neuroprotection against ferrous sulfate/L-ascorbic acid insult, MTT; type: cell-based; details: Fe/Asc 24 h; 1 h pre-incubation; compound 5 20 µM
Description: SH-SY5Y human neuroblastoma cells (ATCC-CRL-2266) were seeded in DMEM/F12 (Dulbecco’s Modified Eagle Medium/Ham’s F-12 Nutrient Mixture; Thermo Fisher Scientific) with 10% heat inactivated fetal bovine serum, 50 U/mL penicillin and 50 U/mL streptomycin under a humidified atmosphere with 95% relative humidity at 37 °C at a 0.16 × 10^6 cells/mL density. Stock solutions from tested compounds (1, 2, 4 and 5) were prepared in DMSO at a 25 mM concentration and stored at −20 °C until needed. In order to select the highest non-toxic concentration, a dose-response screening was performed, where SH-SY5Y cells were exposed to the compounds for 25 h. The selected concentrations for each compound were: 75 µM final concentration for 1 and 2; 10 µM final concentration for 4 and 20 µM final concentration for 5. […]
Cell viability was measured by using the MTT (3-(4,5-dimethylthiazol-2-yl)-2,5-diphenyl tetrazolium bromide) reduction assay. […] Formazan precipitates were then dissolved in DMSO and absorbance measured at 570 nm. The ability to reduce MTT was expressed as a percentage of untreated control cells.
Figure 12 Neuroprotective effect of compounds after Ferrous Sulfate (Fe)/L-Ascorbic Acid (AscH(-)) insult. […] Cellular viability was determined by employing the MTT reduction assay. […]

[11] = Aβ1-42, inhibitor 40 µM, SEM < 10%
[12] = AChE from electric eel, read-out: eeAChEi IC50

Chain of AChE of electroforus electricus (electric eel) (O42275 24-633): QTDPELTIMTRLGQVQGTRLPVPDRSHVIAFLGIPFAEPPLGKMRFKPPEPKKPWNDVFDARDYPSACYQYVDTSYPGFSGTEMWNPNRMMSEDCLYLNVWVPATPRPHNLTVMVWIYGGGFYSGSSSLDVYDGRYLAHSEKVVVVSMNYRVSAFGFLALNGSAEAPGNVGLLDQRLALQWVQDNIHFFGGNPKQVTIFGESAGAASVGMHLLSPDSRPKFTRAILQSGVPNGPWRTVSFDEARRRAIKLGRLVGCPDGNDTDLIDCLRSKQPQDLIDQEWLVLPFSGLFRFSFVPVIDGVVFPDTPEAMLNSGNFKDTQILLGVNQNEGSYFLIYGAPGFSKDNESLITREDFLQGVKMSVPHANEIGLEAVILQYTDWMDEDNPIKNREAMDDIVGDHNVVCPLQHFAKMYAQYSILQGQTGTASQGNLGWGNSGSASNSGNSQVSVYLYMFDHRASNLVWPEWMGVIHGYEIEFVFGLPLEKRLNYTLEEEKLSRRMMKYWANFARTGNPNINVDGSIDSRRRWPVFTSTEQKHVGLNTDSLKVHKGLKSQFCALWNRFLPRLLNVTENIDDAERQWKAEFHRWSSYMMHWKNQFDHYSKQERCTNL
T1 sequence (P05067 672-713 limits assumed): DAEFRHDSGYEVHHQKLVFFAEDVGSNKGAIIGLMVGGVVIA

| SMILES | inhibition at 40 µM (Aβ1-42 [2]; [11]) [%] | IC50 [1, 12] [µM] | Antioxidant Activity EC50 [7] | Inhib. Aβ Aggreg. Self-Induced (Aβ1-42 [2]; [11]) [%] | highest non-toxic concentration (selected concentration) [8] [µM] | protection against Aβ1-42-induced toxicity [9] | also measured |
| --- | --- | --- | --- | --- | --- | --- | --- |
| CC[C@H](C)[C@@H]1NC(=O)C(C(C)=O)=C1O (stereo in doubt) [Tenuazonic acid] | 25.2 | – | – | – | – | – | IC50 ([1]; eeAChEi IC50, AChE from electric eel): 65 ± 4 µM; Inhib. Aβ Aggreg. Cu2+-Induced (Aβ1-42 [3]): did not demonstrate a significant difference of effect; Antioxidant Activity EC50 [4]: - 2.6 ± 0.2 [19] µmol/µmol of DPPH; Inhib. Aβ Aggreg. Self-Induced (Aβ1-42 [5]): 50 ± 8%; log K (protonation constant) [6]: 3.523 |
| CCOC(=O)C1=C(O)C(C)NC1=O (stereo not shown) [Compound 3, Ethyl 4-hydroxy-5-methyl-2-oxo-2,5-dihydro-1H-pyrrole-3-carboxylate] | 57.4 | 44 ± 4 | >30 µmol/µmol of DPPH | – | – | – | inhibition at 40 µM (Aβ1-42 [3]; read-out: Inhib. Aβ Aggreg. Cu2+-Induced): 63.8% |
| O=C1C=C(NCCN2CCN(Cc3ccccc3)CC2)C(Cc2ccccc2)N1 (stereo not shown) [Compound 4, 5-Benzyl-4-((2-(4-benzylpiperazin-1-yl)ethyl)amino)-1,5-di-hydro-2H-pyrrol-2-one] | 72 to 78.4 | 16 ± 2 | >30 µmol/µmol of DPPH | 72.0 | 10 | do not confer protection | – |
| CC(C)C1NC(=O)C=C1NCCN1CCN(Cc2ccccc2)CC1 (stereo not shown) [Compound 5, 4-((2-(4-Benzylpiperazin-1-yl)ethyl)amino)-5-isopropyl-1,5-dihydro-2H-pyrrol-2-one] | 72 to 78.4 | 24 ± 3 | >30 µmol/µmol of DPPH | 78.4 | 20 | do not confer protection; also recorded: not able to directly protect SH-SY5Y cells from Aβ1-42-induced cell toxicity | cytotoxicity on SH-SY5Y cell line ([8]; 10 μM to 100 μM, 24 h, at the active concentrations): non-cytotoxic; also recorded: do not show (except for compound 4) cytotoxicity; neuroprotection against Fe/Asc challenge [10]: conferred neuroprotection against the Fe/Asc challenge |
| Nc1c2c(nc3ccccc13)CCCC2 [Tacrine, reference compound] | – | – | – | – | – | – | inhibition at 40 µM (Aβ1-42 [2]): 31.2% |

Source: article PMC7830597, “Derivatives of Tenuazonic Acid as Potential New Multi-Target Anti-Alzheimer’s Disease Agents” (Biomolecules, 2021)
